In the CombiSolv-Exp solvation set (Vermeire and Green 2021):

Experiment: solvent given as SMILES

C1CCCCCCC1
Details | solvation free energy, 298 K [kcal/mol]
in CCCCCCCCCCCCCCCC | -5.55
in CN1CCCC1=O | -4.77
in CN(C)C=O | -4.39
in COCCO | -4.52
in CS(C)=O | -3.85
in N#CCCCCC#N | -4.01
in NCCO | -3
in O | 0.91

CCCCCCCCCCCCCCCC(=O)OCC
Details | solvation free energy, 298 K [kcal/mol]
in O | -7.23

FC(F)(F)CCl
Details | solvation free energy, 298 K [kcal/mol]
in CCCCCCCC(=O)OCC(COC(=O)CCCCCCC)OC(=O)CCCCCCC | -2.41
in O | 0.06

Cc1cccc(O)c1
Details | solvation free energy, 298 K [kcal/mol]
in CC(C)CCCC(C)CCCC(C)CCCCC(C)CCCC(C)CCCC(C)C | -5.78
in CCCCCC | -5.84
in CCCCCCCCCCCCCCCC | -5.73

Cc1cc(Cl)c(Cl)cc1Cl
Details | solvation free energy, 298 K [kcal/mol]
in CCCCCCCCC=CCCCCCCCC(=O)OCC(COC(=O)CCCCCCCC=CCCCCCCCC)OC(=O)CCCCCCCC=CCCCCCCCC | -7.99
in O | -1.05

CCCCCCCCCCCCO
Details | solvation free energy, 298 K [kcal/mol]
in CC(C)CC(C)(C)C | -8.62
in CCCCCC | -9.26
in CCCCCCCCC=CCCCCCCCC(=O)OCC(COC(=O)CCCCCCCC=CCCCCCCCC)OC(=O)CCCCCCCC=CCCCCCCCC | -10.2

CC(C)(C)C(=O)CC(=O)C(C)(C)C
Details | solvation free energy, 298 K [kcal/mol]
in O | -4.43

CCCCCCOC(=O)c1ccccc1C(=O)OCCCCCC
Details | solvation free energy, 298 K [kcal/mol]
in O | -6.78

CCCCC(=O)OCC
Details | solvation free energy, 298 K [kcal/mol]
in O | -2.49

FC(F)(F)C(Cl)Br (configuration not stated)
Details | solvation free energy, 298 K [kcal/mol]
in C1CCOC1 | -5.01
in C1COCCO1 | -4.41
in CC(C)=O | -4.77
in COC(C)(C)C | -4.69
in COC(C)=O | -4.61

c1cc2ccc3cccc4ccc(c1)c2c34
Details | solvation free energy, 298 K [kcal/mol]
in Brc1ccccc1 | -13.2
in C1CCOC1 | -13.4
in C1COCCO1 | -13
in CC(=O)N(C)C | -13.3
in CC(C)(C)O | -11.2
in CC(C)=O | -12.7
in CC(C)CC(C)(C)C | -11.3
in CC(C)CC(C)O | -11.4
in CC(C)CCO | -11.4
in CC(C)CO | -11.2
in CC(C)O | -11.5
in CC(C)OC(C)C | -12
in CC(O)COC(C)(C)C | -12.3
in CCC(C)(C)O | -11.5
in CCC(C)=O | -13
in CCC(C)O | -11.3
in CCCC(=O)OC | -12.7
in CCCC(C)CO | -11.5
in CCCC(C)O | -11.5
in CCCCC(CC)CO | -11.7
in CCCCCC | -11.5
in CCCCCCC | -11.6
in CCCCCCCC | -11.7
in CCCCCCCCC=CCCCCCCCC(=O)OCC(COC(=O)CCCCCCCC=CCCCCCCCC)OC(=O)CCCCCCCC=CCCCCCCCC | -12.3
in CCCCCCCCCC | -11.8
in CCCCCCCCO | -11.9
in CCCCCCCO | -11.8
in CCCCCCO | -11.8
in CCCCCO | -11.7
in CCCCCOC(C)=O | -12.7
in CCCCCl | -12.8
in CCCCO | -11.6
in CCCCOC(C)=O | -12.7
in CCCCOCCCC | -12.1
in CCCCOCCO | -12.4
in CCCO | -11.5
in CCCOCCO | -12.4
in CCO | -11.6
in CCOC(C)=O | -12.7
in CCOCC | -12.4
in CCOCCO | -12.5
in CN(C)C=O | -13.2
in CNC=O | -11.8
in CO | -11.2
in COC(C)(C)C | -12.2
in COC(C)=O | -12.6
in COC(C)CCO | -12.3
in COCCO | -12.2
in Cc1ccc(C)cc1 | -12.8
in Cc1cccc(C)c1 | -12.8
in Cc1ccccc1C | -12.9
in ClC(Cl)(Cl)Cl | -12.7
in ClC(Cl)Cl | -13.2
in ClCCCl | -13.2
in Fc1ccccc1 | -12.9
in N#Cc1ccccc1 | -13.1
in O | -4.77
in O=C1CCCCC1 | -13.2

Cc1ccc(C=O)cc1
Details | solvation free energy, 298 K [kcal/mol]
in O | -4.27

CS(=O)(=O)Cl
Details | solvation free energy, 298 K [kcal/mol]
in O | -4.87

Clc1ccc2c(c1)Oc1cc(Cl)c(Cl)c(Cl)c1O2
Details | solvation free energy, 298 K [kcal/mol]
in O | -3.84

Clc1cc(Cl)c(-c2cc(Cl)c(Cl)c(Cl)c2Cl)cc1Cl
Details | solvation free energy, 298 K [kcal/mol]
in CCCCCCCCO | -13.9
in O | -3.53

CSc1ccccc1
Details | solvation free energy, 298 K [kcal/mol]
in O | -2.73

O=C(O)c1cc(-c2ccc(F)cc2F)ccc1O
Details | solvation free energy, 298 K [kcal/mol]
in O | -9.4

CNC1CCCCC1
Details | solvation free energy, 298 K [kcal/mol]
in C1CCCCC1 | -6.05

CCC(N)=O
Details | solvation free energy, 298 K [kcal/mol]
in O | -9.4

CCI
Details | solvation free energy, 298 K [kcal/mol]
in Brc1cccc2ccccc12 | -3.97
in Brc1ccccc1 | -4.23
in C1CCOC1 | -4.45
in C1COCCO1 | -4.21
in C=CCCCCCCCCCCCCCC | -3.53
in CC1COC(=O)O1 | -3.71
in CC#N | -3.81
in CC(=O)N(C)C | -3.97
in CC(=O)OCc1ccccc1 | -3.91
in CC(=O)c1ccccc1 | -4.05
in CC(C)(C)O | -3.48
in CC(C)=O | -4
in CC(C)CC(C)(C)C | -3.61
in CC(C)CCO | -3.75
in CC(C)O | -3.56
in CCC#N | -3.94
in CCC(C)=O | -4.1
in CCCBr | -4.31
in CCCCCC | -3.73
in CCCCCCC | -3.68
in CCCCCCCC | -3.66
in CCCCCCCCO | -3.53
in CCCCCl | -4.15
in CCCCO | -3.63
in CCCO | -3.55
in CCO | -3.57
in CCOC(=O)c1ccccc1 | -3.99
in CCOC(C)=O | -4.04
in CCOCC | -3.78
in CN(C)C=O | -3.83
in CO | -3.58
in CS(C)=O | -3.82
in Cc1ccc(C)cc1 | -4.14
in Cc1ccccc1 | -4.2
in ClC1CCCCC1 | -4.19
in ClC(Cl)(Cl)Cl | -4.17
in ClC(Cl)C(Cl)Cl | -4.41
in ClC(Cl)Cl | -4.44
in ClCCCl | -4.2
in ClCCl | -4.12
in Clc1ccccc1 | -4.22
in Ic1ccccc1 | -4.29
in N#Cc1ccccc1 | -4
in O | -0.74
in O=C1CCCCC1 | -4.18
in c1ccc2ncccc2c1 | -3.93
in c1ccccc1 | -4.32

CC(C)CCCOC(=O)c1ccccc1C(=O)OCCCC(C)C
Details | solvation free energy, 298 K [kcal/mol]
in O | -6.73
